Experimental data published in patent publication EP0000693A1, “Aminophenoxymethyl-2-morpholine derivatives, the preparation thereof and pharmaceuticals containing them” (Dr. Karl Thomae GmbH, priority 1977, dated 1979).
Counter-ions that a name gives are not always drawn. Like-named read-outs stand apart in the source and are kept apart here.

Legend:
[1] = tested on: durch Reserpin hervorgerufene Hypothermie bei Mäusen; assay: Antidepressant effect: antagonism of reserpine-induced hypothermia (Versuch 1); assay type: in vivo, Maus; conditions: 40 mg/kg p.o., 17 h after 3 mg/kg Reserpin s.c.; maximal re-rise of body temperature versus controls, measured 1 - 4 h after dosing; * = significant versus controls, p ≤ 0,05
Source text: (§1) Beispielsweise wurden die Verbindungen • A = 2-(2-Amino-3,5-dibrom-phenoxy-methylen)-morpholin-hydrochlorid, • B = 2-(4-Amino-3,5-dibrom-phenoxy-methylen)-4-isopropyl-morpholin- hydrochlorid, • C = 2-(4-Amino-3,5-dibrom-phenoxy-methylen)-morpholin-hydrochlorid, • D = 2-(2-Amino-3,5-dibrom-phenoxy-methylen)-4-tert.butyl-morpholin-hydrochlorid und • E = 2-(2-Amino-5-brom-4-chlor-phenoxy-methylen)-4-isopronyl- morpholin-dihydrochlorid ,im Vergleich zu • F = 2-(2-Äthoxy-phenoxy-methylen)-morpholin-hydrochlorid auf ihre biologischen Wirkungen wie folgt untersucht: • 1. […] Bei 20 - 26 g schweren männlichen Mäusen wurde durch 3 mg/kg Reserpin s.c. Hypothermie erzeugt. 17 Stunden später wurde die Körpertemperatur mittels eines elektrischen Schlundsondenthermometers gemessen. Anschließend wurden Gruppen von 6 - 10 Tieren die zu prüfenden Substanzen in der Dosis von 40 mg/kg p.o. verabreicht. Kontrollgruppen erhielten das Lösungsmittel (Aqua dest.). Die Körpertemperaturen wurden 1 - 4 Stunden nach Substanzverabreichung in stündlichem Abstand gemessen. Zur Auswertung wurden der maximale Wiederanstieg der Körpertemperatur der Substanzgruppe mit den Temperaturen der Kontrolltiergruppen verglichen und die Temperaturunterschiede mit dem MANN-WHITNEY-U-Test auf Signifikanz geprüft. • 2. […] Dazu wurde bei 10 männlichen, 20-26 g schweren Mäusen ein Krampfzustand mit Wechselstrom (50 mA, 50 Hz, 0,2 sec Dauer) über mit physiologischer : Kochsalz-Lösung angefeuchtete, an den Kopf der Tiere gelegte Metallelektroden erzeugt, wobei das Ausbleiben der tonischen Extensorkomponente dieses Krampfes 150 Minuten nach Substanzgabe als antikonvulsive Wirkung gewertet wurde.

[2] = tested on: maximalen Elektrokrampf bei Mäusen; assay: Anticonvulsant effect: maximal electroshock seizure (Versuch 2); assay type: in vivo, Maus; conditions: Mus musculus, 2.5 h
Source text: as §1

[3] = tested on: Muskelrelax. + Sedierung Maus; assay: Muscle relaxation and sedation (Versuch 3); assay type: in vivo; conditions: mouse; method text not readable (image)
[4] = male mice, 50 mA, 50 Hz, 0,2 sec, absence of tonic extensor component 150 min after dosing, ED50 by LITCHFIELD and WILCOXON, read-out: Versuch 2 Elektrokrampf Maus ED50-Hemmung

CC(C)(C)N1CCOC(COc2cc(Br)cc(Br)c2N)C1 (stereo not drawn) [D, 2-(2-Amino-3,5-dibrom-phenoxy-methylen)-4-tert.butyl-morpholin-hydrochlorid]
Versuch 1 Reserpin Maus 40 mg/kg: +°C [1]: 0,6 °C
ED50 [2, 4]: 150 mg/kg
ED50 [3]: > 200 mg/kg

Nc1c(Br)cc(OCC2CNCCO2)cc1Br (stereo not drawn) [C, 2-(4-Amino-3,5-dibrom-phenoxy-methylen)-morpholin-hydrochlorid]
Versuch 1 Reserpin Maus 40 mg/kg: +°C [1]: 7,3* °C
ED50 [2, 4]: 17.5 mg/kg
ED50 [3]: 21 mg/kg

CC(C)N1CCOC(COc2cc(Br)c(Cl)cc2N)C1 (stereo not drawn) [E, 2-(2-Amino-5-brom-4-chlor-phenoxy-methylen)-4-isopronyl-morpholin-dihydrochlorid]
Versuch 1 Reserpin Maus 40 mg/kg: +°C [1]: 1,0 °C
ED50 [2, 4]: 200 mg/kg
ED50 [3]: > 200 mg/kg

CC(C)N1CCOC(COc2cc(Br)c(N)c(Br)c2)C1 (stereo not drawn) [B, 2-(4-Amino-3,5-dibrom-phenoxy-methylen)-4-isopropyl-morpholin-hydrochlorid]
Versuch 1 Reserpin Maus 40 mg/kg: +°C [1]: 8,4* °C
ED50 [2, 4]: 26 mg/kg
ED50 [3]: 60 mg/kg

CCOc1ccccc1OCC1CNCCO1 (stereo not drawn) [F, 2-(2-Äthoxy-phenoxy-methylen)-morpholin-hydrochlorid, reference compound]
Versuch 1 Reserpin Maus 40 mg/kg: +°C [1]: 9,8* °C
ED50 ([2]; read-out: Versuch 2 Elektrokrampf Maus ED50-Hemmung mg/kg): 42 mg/kg
ED50 [3]: ~200 mg/kg

Nc1c(Br)cc(Br)cc1OCC1CNCCO1 (stereo not drawn) [A, 2-(2-Amino-3,5-dibrom-phenoxy-methylen)-morpholin-hydrochlorid]
Versuch 1 Reserpin Maus 40 mg/kg: +°C [1]: 10,7* °C
ED50 [2, 4]: 26.5 mg/kg
ED50 [3]: > 200 mg/kg
